Measured values: patent US20250382344A1, “Soluble GLP1/GIP/NPY2 Receptor Triple Agonists” (Boehringer Ingelheim International GmH, priority 2024, published 2025)
Read-outs that look alike come from different tables or passages of the source.

Columns and labels:
[1] = Solubility in 0.1 M phosphate buffer at pH 7; type: physicochemical; details: 0.1 M phosphate buffer at pH 7, 10 mg/mL final peptide concentration, shaking 2 hours at room temperature, peptides as TFA-salts, measured sample pH 6.5-7.0; for solubility: read-out: Solubility
[2] = Mouse PK after intravenous application; type: in vivo; details: plasma, male NMRI mice, intravenous 30-60 nmol/kg, non-compartmental analysis
Description: Pharmacokinetic parameters of the peptides were determined after intravenous application to NMRI mice (Naval Medical Research Institute mice). Male NMRI mice were obtained from Janvier Laboratories (France) weighing 30 g to 40 g. Mice were housed in standard cages with a 12:12 hours light:dark cycle and standard food and water access ad libitum. Each test peptide was dissolved in 50 mM phosphate buffer (pH 7.4)/3.5% mannitol. Intravenous application of 30-60 nmol/kg was performed via the tail vein. Serial blood samples from conscious mice were collected from the saphenous vein in EDTA-containing vials at different time points up to 56 hours post-dosing. Subsequently, plasma was prepared by centrifugation for 5 minutes at approximately 5000 rpm and stored at −20° C. until quantification of the peptide plasma levels by liquid chromatography mass spectrometry (LC-MS). Individual plasma concentration-time profiles were analysed by a non-compartmental approach and the resulting pharmacokinetic parameters were calculated.

[3] = target: T1, hGLP1R (Homo sapiens, UniProt P43220); assay: hGLP1R CreLuc assay in 0.5% and 100% plasma (HEK-293 CRE-luciferase reporter cells); type: cell-based; details: HEK-293 reporter cells
T1 construct: expressed in transfected cells; host or cells: HEK-293 CRE-luciferase reporter cells
T1 sequence (P43220 24-463): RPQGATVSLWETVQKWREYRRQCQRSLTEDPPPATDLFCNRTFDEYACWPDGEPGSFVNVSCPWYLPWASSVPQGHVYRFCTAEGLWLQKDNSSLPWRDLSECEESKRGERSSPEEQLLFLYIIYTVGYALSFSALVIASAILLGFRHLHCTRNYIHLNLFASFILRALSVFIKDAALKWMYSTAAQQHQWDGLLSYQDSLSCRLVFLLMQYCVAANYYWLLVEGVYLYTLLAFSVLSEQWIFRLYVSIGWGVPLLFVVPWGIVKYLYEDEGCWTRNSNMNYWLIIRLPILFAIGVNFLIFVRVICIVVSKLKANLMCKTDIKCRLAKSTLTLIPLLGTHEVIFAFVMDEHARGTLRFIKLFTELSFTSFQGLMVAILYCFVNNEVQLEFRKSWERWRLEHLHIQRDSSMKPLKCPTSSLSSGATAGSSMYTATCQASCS

[4] = target: T2, hGIPR (Homo sapiens, UniProt P48546); assay: hGIPR CreLuc assay in 0.5% and 100% plasma (CHO CRE-luciferase reporter cells); type: cell-based; details: 0.5% human plasma, read-out: hGIPR 0.5% hP
T2 construct: expressed in transfected cells; host or cells: CHO CRE-luciferase reporter cells
T2 sequence (P48546 22-466): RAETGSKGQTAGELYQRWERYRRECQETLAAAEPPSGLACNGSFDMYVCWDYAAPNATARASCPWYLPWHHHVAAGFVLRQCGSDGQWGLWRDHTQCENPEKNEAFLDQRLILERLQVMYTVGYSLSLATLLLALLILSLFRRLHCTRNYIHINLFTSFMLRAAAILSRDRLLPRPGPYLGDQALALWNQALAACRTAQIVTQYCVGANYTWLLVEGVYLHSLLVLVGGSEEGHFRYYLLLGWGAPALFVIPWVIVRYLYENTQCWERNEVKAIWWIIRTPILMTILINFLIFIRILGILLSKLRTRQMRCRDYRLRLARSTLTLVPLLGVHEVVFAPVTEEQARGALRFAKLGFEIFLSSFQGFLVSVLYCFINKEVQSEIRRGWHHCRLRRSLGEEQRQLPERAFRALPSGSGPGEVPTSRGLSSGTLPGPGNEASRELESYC

Row | solubility [1] | MRT [2] | EC50 ([3]; 0.5% human plasma, read-out: hGLP1R 0.5% hP) | EC50 ([3]; 100% human plasma, read-out: hGLP1R 100% hP) | EC50 [4] | solubility at 2 h [1] | SMILES
1 | 4700 µg/mL | 7.5 h |  |  |  |  | CC[C@H](C)[C@H](NC(=O)[C@H](CC(C)C)NC(=O)[C@H](Cc1c[nH]cn1)NC(=O)[C@H](CCCNC(=N)N)NC(=O)[C@@H](NC(=O)[C@H](Cc1ccccc1)NC(=O)[C@H](C)NC(=O)C(C)(C)NC(=O)[C@H](CCC(N)=O)NC(=O)[C@H](C)NC(=O)[C@H](CCC(N)=O)NC(=O)[C@H](CCCCN)NC(=O)[C@H](CCC(=O)O)NC(=O)[C@H](CC(C)C)NC(=O)C(C)(C)NC(=O)[C@@H](NC(=O)[C@H](CO)NC(=O)[C@H](Cc1ccc(O)cc1)NC(=O)[C@H](CC(=O)O)NC(=O)[C@H](CO)NC(=O)[C@@H](NC(=O)[C@H](Cc1ccccc1)NC(=O)[C@@H](NC(=O)CNC(=O)[C@H](CCC(=O)O)NC(=O)C(C)(C)NC(=O)[C@@H](N)Cc1ccc(O)cc1)[C@@H](C)O)[C@@H](C)O)[C@@H](C)CC)C(C)C)C(=O)N[C@@H](CC(N)=O)C(=O)N[C@@H](CCCCNC(=O)CCCCCNC(=O)CC[C@H](NC(=O)CC[C@H](NC(=O)CC[C@H](NC(=O)CC[C@H](NC(=O)CC[C@H](NC(=O)CC[C@H](NC(=O)CCCCCCCCCCCCCCCCC(=O)O)C(=O)O)C(=O)O)C(=O)O)C(=O)O)C(=O)O)C(=O)O)C(=O)NC(C)(C)C(=O)N[C@H](C(=O)N[C@@H](CCCNC(=N)N)C(=O)N[C@@H](CCC(N)=O)C(=O)N[C@@H](CCCNC(=N)N)C(=O)N[C@@H](Cc1ccc(O)cc1)C(N)=O)[C@@H](C)O [Compound 9, Y-Aib-E-G-T-F-T-S-D-Y-S-I-Aib-L-E-K-Q-A-Q-Aib-A-F-V-R-H-L-I-N-K(1,3)-Aib-T-R-Q-R-Y-NH2.C18DA-gGlu-gGlu-gGlu-gGlu-gGlu-gGlu-AHX(1,2)]
2 | 4800 µg/mL | 4.6 h |  |  |  |  | CC[C@H](C)[C@H](NC(=O)[C@H](CC(C)C)NC(=O)[C@H](Cc1c[nH]cn1)NC(=O)[C@H](CCCNC(=N)N)NC(=O)[C@@H](NC(=O)[C@H](Cc1ccccc1)NC(=O)[C@H](C)NC(=O)C(C)(C)NC(=O)[C@H](CCC(N)=O)NC(=O)[C@H](C)NC(=O)[C@H](CCC(N)=O)NC(=O)[C@H](CCCCN)NC(=O)[C@H](CCC(=O)O)NC(=O)[C@H](CC(C)C)NC(=O)C(C)(C)NC(=O)[C@@H](NC(=O)[C@H](CO)NC(=O)[C@H](Cc1ccc(O)cc1)NC(=O)[C@H](CC(=O)O)NC(=O)[C@H](CO)NC(=O)[C@@H](NC(=O)[C@H](Cc1ccccc1)NC(=O)[C@@H](NC(=O)CNC(=O)[C@H](CCC(=O)O)NC(=O)C(C)(C)NC(=O)[C@@H](N)Cc1ccc(O)cc1)[C@@H](C)O)[C@@H](C)O)[C@@H](C)CC)C(C)C)C(=O)N[C@@H](CC(N)=O)C(=O)N[C@@H](CCCCNC(=O)CCCCCNC(=O)CC[C@H](NC(=O)CC[C@H](NC(=O)CC[C@H](NC(=O)CC[C@H](NC(=O)CC[C@H](NC(=O)CCCCCCCCCCCCCCCCC(=O)O)C(=O)O)C(=O)O)C(=O)O)C(=O)O)C(=O)O)C(=O)N[C@@H](CC(C)C)C(=O)N[C@H](C(=O)N[C@@H](CCCNC(=N)N)C(=O)N[C@@H](CCC(N)=O)C(=O)N[C@@H](CCCNC(=N)N)C(=O)N[C@@H](Cc1ccc(O)cc1)C(N)=O)[C@@H](C)O [Compound 69, Y-Aib-E-G-T-F-T-S-D-Y-S-I-Aib-L-E-K-Q-A-Q-Aib-A-F-V-R-H-L-I-N-K(1,3)-L-T-R-Q-R-Y-NH2.C18DA-gGlu-gGlu-gGlu-gGlu-gGlu-AHX(1,2)]
3 | 8600 µg/mL | 16.4 h |  |  |  |  | CC[C@H](C)[C@H](NC(=O)[C@H](CC(C)C)NC(=O)[C@H](Cc1c[nH]cn1)NC(=O)[C@H](CCCNC(=N)N)NC(=O)[C@@H](NC(=O)[C@H](Cc1ccccc1)NC(=O)[C@H](C)NC(=O)C(C)(C)NC(=O)[C@H](CCC(N)=O)NC(=O)[C@H](C)NC(=O)[C@H](CCC(N)=O)NC(=O)[C@H](CCCCN)NC(=O)[C@H](CC(=O)O)NC(=O)[C@H](CC(C)C)NC(=O)C(C)(C)NC(=O)[C@@H](NC(=O)[C@H](CO)NC(=O)[C@H](Cc1ccc(O)cc1)NC(=O)[C@H](CC(=O)O)NC(=O)[C@H](CO)NC(=O)[C@@H](NC(=O)[C@H](Cc1ccccc1)NC(=O)[C@@H](NC(=O)CNC(=O)[C@H](CCC(=O)O)NC(=O)C(C)(C)NC(=O)[C@@H](N)Cc1ccc(O)cc1)[C@@H](C)O)[C@@H](C)O)[C@@H](C)CC)C(C)C)C(=O)N[C@@H](CC(N)=O)C(=O)N[C@@H](CCCCNC(=O)[C@@H](N)CCCCNC(=O)CC[C@H](NC(=O)[C@H](CCC(=O)O)NC(=O)CC[C@H](NC(=O)CC[C@H](NC(=O)CC[C@H](NC(=O)CC[C@H](NC(=O)CCCCCCCCCCCCCCCCCCC(=O)O)C(=O)O)C(=O)O)C(=O)O)C(=O)O)C(=O)O)C(=O)NC(C)(C)C(=O)N[C@H](C(=O)N[C@@H](CCCNC(=N)N)C(=O)N[C@@H](CCC(N)=O)C(=O)N[C@@H](CCCNC(=N)N)C(=O)N[C@@H](Cc1ccc(O)cc1)C(N)=O)[C@@H](C)O [Compound 74, Y-Aib-E-G-T-F-T-S-D-Y-S-I-Aib-L-D-K-Q-A-Q-Aib-A-F-V-R-H-L-I-N-K(1,3)-Aib-T-R-Q-R-Y-NH2.C20DA-gGlu-gGlu-gGlu-gGlu-gGlu-gGlu-eLys(1,2)]
4 |  | 7.4 h | 0.4 nM | 1.8 nM | 0.3 nM | 400 µg/mL | CC[C@H](C)[C@H](NC(=O)[C@H](CC(C)C)NC(=O)[C@H](Cc1c[nH]cn1)NC(=O)[C@H](CCCNC(=N)N)NC(=O)[C@@H](NC(=O)[C@H](Cc1ccccc1)NC(=O)[C@H](C)NC(=O)C(C)(C)NC(=O)[C@H](CCC(N)=O)NC(=O)[C@H](C)NC(=O)[C@H](CCC(N)=O)NC(=O)[C@H](CCCCN)NC(=O)[C@H](CCC(=O)O)NC(=O)[C@H](CC(C)C)NC(=O)C(C)(C)NC(=O)[C@@H](NC(=O)[C@H](CO)NC(=O)[C@H](Cc1ccc(O)cc1)NC(=O)[C@H](CC(=O)O)NC(=O)[C@H](CO)NC(=O)[C@@H](NC(=O)[C@H](Cc1ccccc1)NC(=O)[C@@H](NC(=O)CNC(=O)[C@H](CCC(=O)O)NC(=O)C(C)(C)NC(=O)[C@@H](N)Cc1ccc(O)cc1)[C@@H](C)O)[C@@H](C)O)[C@@H](C)CC)C(C)C)C(=O)N[C@@H](CC(N)=O)C(=O)N[C@@H](CCCCNC(=O)CC[C@H](NC(=O)CC[C@H](NC(=O)CC[C@H](NC(=O)CC[C@H](NC(=O)CCCCCCCCCCCCCCCCC(=O)O)C(=O)O)C(=O)O)C(=O)O)C(=O)O)C(=O)NC(C)(C)C(=O)N[C@H](C(=O)N[C@@H](CCCNC(=N)N)C(=O)N[C@@H](CCC(N)=O)C(=O)N[C@@H](CCCNC(=N)N)C(=O)N[C@@H](Cc1ccc(O)cc1)C(N)=O)[C@@H](C)O [Compound 77, Y-Aib-E-G-T-F-T-S-D-Y-S-I-Aib-L-E-K-Q-A-Q-Aib-A-F-V-R-H-L-I-N-K(1,3)-Aib-T-R-Q-R-Y-NH2.C18DA-gGlu-gGlu-gGlu-gGlu(1,2)]
5 | 4200 µg/mL | 7 h |  |  |  |  | CC[C@H](C)[C@H](NC(=O)[C@H](CC(C)C)NC(=O)[C@H](Cc1c[nH]cn1)NC(=O)[C@H](CCCNC(=N)N)NC(=O)[C@@H](NC(=O)[C@H](Cc1ccccc1)NC(=O)[C@H](CCC(=O)O)NC(=O)C(C)(C)NC(=O)[C@H](CCC(N)=O)NC(=O)[C@H](C)NC(=O)[C@H](CCC(N)=O)NC(=O)[C@H](CCCCN)NC(=O)[C@H](CCC(=O)O)NC(=O)[C@H](CC(C)C)NC(=O)C(C)(C)NC(=O)[C@@H](NC(=O)[C@H](CO)NC(=O)[C@H](Cc1ccc(O)cc1)NC(=O)[C@H](CC(=O)O)NC(=O)[C@H](CO)NC(=O)[C@@H](NC(=O)[C@H](Cc1ccccc1)NC(=O)[C@@H](NC(=O)CNC(=O)[C@H](CCC(=O)O)NC(=O)C(C)(C)NC(=O)[C@@H](N)Cc1ccc(O)cc1)[C@@H](C)O)[C@@H](C)O)[C@@H](C)CC)C(C)C)C(=O)N[C@@H](CC(N)=O)C(=O)N[C@@H](CCCCNC(=O)CC[C@H](NC(=O)CC[C@H](NC(=O)CC[C@H](NC(=O)CC[C@H](NC(=O)CCCCCCCCCCCCCCCCC(=O)O)C(=O)O)C(=O)O)C(=O)O)C(=O)O)C(=O)NC(C)(C)C(=O)N[C@H](C(=O)N[C@@H](CCCNC(=N)N)C(=O)N[C@@H](CCC(N)=O)C(=O)N[C@@H](CCCNC(=N)N)C(=O)N[C@@H](Cc1ccc(O)cc1)C(N)=O)[C@@H](C)O [Compound 79, Y-Aib-E-G-T-F-T-S-D-Y-S-I-Aib-L-E-K-Q-A-Q-Aib-E-F-V-R-H-L-I-N-K(1,3)-Aib-T-R-Q-R-Y-NH2.C18DA-gGlu-gGlu-gGlu-gGlu(1,2)]
